In patent US20240114943A1, “TASTE-IMPROVING COMPOSITIONS AND USES THEREOF” (AMAI PROTEINS LTD., priority 2020, published 2024):

Assays:
[1] = Sensory expert panel time-intensity evaluation (sweetness intensity over time); assay type: in vivo, human
Procedure: The samples were evaluated by a panel of (˜15) prescreened, highly-sensitive, trained and calibrated expert tasters: The parameters quantified included Sweetness profile over time (Sweetness intensity with time after intake), Linger (Area under the sweetness intensity vs. time curve (AUC) from 60 to 150 or to 300 seconds), Linger time (Delta time from initial- to zero sweetness), Ratio of the Intensity at 60 seconds to the maximal intensity, Linger T50: Time to reach 50% of the maximal sweetness, Linger T10: Time to reach 10% of the maximal sweetness. The qualitative similarity of the taste to that of sugar was also evaluated, to describe attributes other than time-intensity profile.
Dilute citrate buffer was prepared in mineral water. […]
All micro-patched SP (MP-SP) were evaluated for sweetness intensity over time. The sensory panelists for the evaluation were screened for sensitivity for small differences in sweetness intensity and other basic tastes (saltiness, sourness, and bitterness), as well as sensory memory. These screening tests were performed according to ISO standards (IS 8586). The sensory expert panel was professionally trained and continuously assessed as to reproducibility and capability to differentiate between standard samples.
Sensory Method—Time Intensity (Measuring Sweetness Intensity Over Time): • 1. The products were tasted by an expert panel. • 2. Panelists were calibrated first with sugar solutions on a scale of 0-100 (magnitude estimation), while 0=not sweet at all. Calibration solutions used were 4% sucrose (defined as 50 sweetness) and 8% (defined as 100 sweetness grade). • 3. After calibration, the tasters preformed time-intensity evaluation for each sample according to the following stages: • a. After giving a signal, all tasters put the sample in their mouth, rolled it in their oral cavity for 2 seconds, and then swallowed. • b. After swallowing, the guide measured times, and at each time point, the taster was asked to grade the currently sensed sweetness intensity on the same scale (0-100) until the taste has disappeared. • c. The time periods examined were: 1, 2, 5, 7, 10, 15, 30, 45, 60, 90, 120, 150, 180, 210, 240, 270, and 300 seconds. • 4. Each panelist tasted a total of 6 products: SP standalone and four ratios of EGCG+SP tasted in varying orders. Sucrose solution (8Bx) was always tasted at the end. • 5. All the tested products were served using code numbers. • 6. Before and between samples, the tasters were requested to rinse their mouth with mineral water, eat an unsalted cracker and a cucumber, and drink water again. • 7. 11-15 tasters participated in these tests.

[2] = Meta-analysis of sensory panel meetings: four measures of lingering; assay type: in vivo, human; conditions: summary of Example 4
Procedure: The meta-analysis was based on 44 sensory panel meetings and 55 MP agents. Statistical analysis was conducted. Four measures of lingering were defined: • AUC—the area under the time-intensity curve from 60 seconds to 300 seconds. • I60/max—the ratio between the intensity recorded at 60 seconds and the maximum intensity recorded. • T50—the time in seconds at which intensity recorded was 50% of the maximal intensity recorded • T10—the time in seconds at which intensity recorded was 10% of the maximal intensity recorded
Each graph refers to a single parameter. The graphs show means and standard errors for the MP agents that show significant improvement compared to the control (DM09 alone). The standard errors are calculated according to all the data in the Meta analysis (including data that are not shown in the graph).
The mean for the protein without MP agents is colored black.

Molecule: OC[C@H]1O[C@@](CO)(O[C@H]2O[C@H](CO)[C@@H](O)[C@H](O)[C@H]2O)[C@@H](O)[C@@H]1O [sucrose, reference compound]
- Typical linger of sugar ([1]; in vivo): ~60 s

Molecule: epigallocatechin-3-gallate [EGCG, reference compound]
- Sweetness profile over time (sweetness intensity) ([1]; EGCG with MNEI 0.08 mg/ml, 8 Bx, vs MNEI alone and sucrose, FIG. 1): significantly improved the sweetness profile of SP
- Sweetness profile of DM09 (lingering effect) [2]: decreasing the lingering effect

Molecule: CC1(C)[C@@H](O[C@H]2O[C@H](C(=O)O)[C@@H](O)[C@H](O)[C@H]2O[C@@H]2O[C@H](C(=O)O)[C@@H](O)[C@H](O)[C@H]2O)CC[C@]2(C)[C@H]3C(=O)C=C4[C@@H]5C[C@@](C)(C(=O)O)CC[C@]5(C)CC[C@@]4(C)[C@]3(C)CC[C@@H]12.N [Mono Ammonium Glycyrrhizinate, monoammonium glycyrrhizinate, reference compound]
- Sweetness profile over time (sweetness-intensity-vs.-time curve, lingering effect) ([1]; DM09 0.02 mg/ml, 8 Bx sugar equivalence level, vs DM09 alone): decreasing the lingering effect

B1: DM09: designer monellin, SEQ ID NO: 3; the sweet protein (SP) of Example 5 (protein)
chain: GNWEIIDIGPFTQNLGKFAVDEANKIGQYGRLTFNKVIRPCMKKTIYENEGFREIKGYEYQLYVRASDKLFRADISEDYKTRGRKLLRFNGPVPPP
- Linger time (Delta time (in sec) from initial to 0 sweetness intensity) ([1]; DM09 0.02 mg/ml, 8 Bx sugar equivalence level, vs DM09 alone, P<0.05): significantly higher than the delta time of DM09:lactisole:tannic acid:ammonium Glycyrrhizinate
- Linger time (Delta time (in sec) from initial to 0 sweetness intensity) ([1]; DM09 0.02 mg/ml, 8 Bx sugar equivalence level, vs DM09 alone, P<0.05, listed as DM09 only): significantly higher than the delta time of Quillija:DM09 (26:1)
- Linger (sweetness-intensity-vs.-time curve) ([1]; sweet protein with gymnemic acids and/or maltodextrin, FIG. 15): longest linger time

B2: MNEI: single chain Monellin (MNEI) reference protein, SEQ ID NO: 28 (protein)
chain: GEWEIIDIGPFTQNLGKFAVDEENKIGQYGRLTFNKVIRPCMKKTIYENEGFREIKGYEYQLYVYASDKLFRADISEDYKTRGRKLLRFNGPVPPP
- Linger (AUC of the sweetness-intensity vs. time, 60-150 seconds) ([1]; MNEI, 8 Bx, P<0.05, FIG. 2): significantly higher than the AUC of EGCG:MNEI (60:1)
